{
  "source": "patent US6500610B1",
  "about": "“Methods for identifying compounds for inhibiting of neoplastic lesions, and pharmaceutical compositions containing such compounds” (Cell Pathways, INC, priority 1997, dated 2002)",
  "key": {"[1]": {"system": "cGMP PDE from human colon HT-29 cultured tumor cells", "experiment": "cGMP PDE inhibition assay", "assay_type": "biochemical"}, "[2]": {"system": "SW-480 colon adenocarcinoma cells"}, "[3]": {"biological_target": "T1, cyclooxygenase (Type 1), COX-I (Ovis aries, UniProt P05979)", "T1 sequence (P05979 25-600)": "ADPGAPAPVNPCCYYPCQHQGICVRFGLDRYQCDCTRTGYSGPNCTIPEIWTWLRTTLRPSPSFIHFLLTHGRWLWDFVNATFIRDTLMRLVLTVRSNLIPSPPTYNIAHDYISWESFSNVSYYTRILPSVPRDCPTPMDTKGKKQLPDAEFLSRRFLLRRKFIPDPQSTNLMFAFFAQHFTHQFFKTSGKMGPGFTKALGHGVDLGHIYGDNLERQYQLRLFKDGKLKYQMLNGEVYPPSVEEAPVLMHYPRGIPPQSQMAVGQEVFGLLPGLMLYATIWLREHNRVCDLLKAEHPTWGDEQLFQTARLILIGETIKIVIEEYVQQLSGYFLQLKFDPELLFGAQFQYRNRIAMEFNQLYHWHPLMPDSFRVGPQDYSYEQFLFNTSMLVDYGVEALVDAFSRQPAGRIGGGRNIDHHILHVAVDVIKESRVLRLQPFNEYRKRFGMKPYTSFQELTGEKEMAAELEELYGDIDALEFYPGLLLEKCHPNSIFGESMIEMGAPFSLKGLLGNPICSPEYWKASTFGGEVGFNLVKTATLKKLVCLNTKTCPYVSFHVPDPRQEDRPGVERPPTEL", "experiment": "COX inhibition assay, purified cyclooxygenase"}, "HT-29 cells": {"system": "HT-29 cells", "experiment": "Growth inhibition, SRB assay, HT-29", "assay_type": "cell-based, human"}, "[4]": {"system": "SW-480 colon adenocarcinoma cells", "experiment": "Apoptosis fold induction / DNA fragmentation protocol"}, "[5]": {"biological_target": "T2, cGMP binding sites of the GST-cGB-PDE5 Protein (Homo sapiens, UniProt O76074)", "T2 construct": "made in house; host or cells: E. coli BL21 (DE3)", "experiment": "cGMP binding assay with GST-cGB-PDE5 fusion protein", "conditions": "3H-cGMP 2 μM"}, "[6]": {"system": "novel Peak B from LnCAP prostate cancer cell line", "experiment": "cGMP PDE activity of peak B from LnCAP", "assay_type": "biochemical", "conditions": "0.25 μM cGMP", "experimental": "(§1) The novel Peak B was also isolated from two other neoplastic cell lines, a breast cancer cell line, HTB-26 and a prostate cancer cell line, LnCAP by a procedure similar to the one above used to isolate it from SW480. The protocol was modified in several respects. To provide even greater reproducibility to allow comparison of different cell lines, a Pharmacia AKTA FPLC was used to control sample loading and elution on an 18 mL DEAE TrisAcryl M column. SW840 was run by this same procedure multiple times to provide a reference of peak B. 200-400 million cells of SW480 were used for the profiles. 70 million cells of LnCAP were used for a profile (see FIGS. 22 and 23), and in a separate experiment 32 million cells of HTB-26 were used for a profile (see FIGS. 20 and 21). After re-suspending cells in homogenization buffer, samples were manually homogenized. FPLC buffer A was 8 mM TRIS-acetate, 5 mM Mg acetate, 0.1 mM EDTA, pH 7.5 and buffer B was 8 mM TRIS-acetate, 5 mM Mg acetate, 0.1 mM EDTA, 1 M Na acetate, pH 7.5. Supernatants were loaded onto the column at 1 mL per minute, followed by a wash with 60 mL buffer A at 1 mL per minute. A gradient was run from 0-15% buffer B in 60 mL, 15-50% buffer B in 60 mL, and 50-100% buffer B in 16 mL. During the gradient 1.5 mL fractions were collected."}, "[7]": {"biological_target": "T3, novel cGMP-specific PDE (Peak B) from SW480 cells (Homo sapiens, UniProt O00408)", "T3 construct": "IC50 Peak B (μM)", "experiment": "cGMP hydrolysis inhibition, novel PDE peak B (Section IA) from SW480", "assay_type": "biochemical", "conditions": "peak B from SW480, FPLC, 0.25 μM cGMP"}, "[8]": {"system": "novel Peak B from HTB-26 breast cancer cell line", "experiment": "cGMP PDE activity of peak B from HTB-26", "assay_type": "biochemical", "conditions": "peak B from HTB-26, 0.25 μM cGMP", "experimental": "as §1"}, "β-catenin in SW480 cells": {"system": "β-catenin in SW480 cells", "experiment": "Western blot of β-catenin in SW480 cells", "assay_type": "cell-based, human", "conditions": "SW480, 200, 400 or 600 μM, 48 hours", "experimental": "SW480 cells treated with exisulind as described previously are harvested from the microfuge tubes by rinsing once with ice-cold PBS. The cells are lysed by modified RIPA buffer for 15 minutes with agitation. The cell lysate is spun down in a cold room. The supernatants are transferred to fresh microcentrifuge tubes immediately after spinning. BioRad DC Protein Assay (Temecula, Calif.) is performed to determine the protein concentrations in samples. The samples are normalized for protein concentration, as described above.\n50 μg of each sample is loaded to 10% SDS gel. SDS-PAGE is performed, and the proteins then are transferred to a nitrocellulose membrane. The blotted nitrocellulose membrane are blocked in freshly prepared TBST containing 5% nonfat dry milk for one hour at room temperature with constant agitation.\nSW480 cells were treated with exisulind or vehicle (0.1% DMSO) for 48 hours. 50 μg supernatant of each cell lysates were loaded to 10% SDS-gel and blotted to nitrocellulose membrane, and the membrane was probed with rabbit-anti-β-catenin and rabbit anti-PKG antibodies.\nThis observation was made by culturing SW480 cells with either 200, 400 or 600 μM exisulind or vehicle (0.1% DMSO). The cells are harvested 48 hours post treatment and processed for immunoblotting. Immuno-reactive protein can be detected by Western blot. […]"}, "[9]": {"system": "premalignant lesions in mouse mammary gland organ culture", "experiment": "Mammary gland organ culture model", "assay_type": "cell-based", "from_the_text": "Test compounds identified by the above methods can be tested for antineoplastic activity by their ability to inhibit the incidence of pre-neoplastic lesions in a mammary gland organ culture system. This mouse mammary gland organ culture technique has been successfully used by other investigators to study the effects of known antineoplastic agents such as certain NSAIDs, retinoids, tamoxifen, selenium, and certain natural products, and is useful for validation of the screening method of the present invention.\nFor example, female BALB/c mice can be treated with a combination of estradiol and progesterone daily, in order to prime the glands to be responsive to hormones in vitro. The animals are sacrificed, and thoracic mammary glands are excised aseptically and incubated for ten days in growth media supplemented with insulin, prolactin, hydrocortisone, and aldosterone. DMBA (7,12 dimethylbenz(a)anthracene) is added to medium to induce the formation of premalignant lesions. Fully developed glands are then deprived of prolactin, hydrocortisone, and aldosterone, resulting in the regression of the glands but not the pre-malignant lesions.\nThe test compound is dissolved in DMSO and added to the culture media for the duration of the culture period. At the end of the culture period, the glands are fixed in 10% formalin, stained with alum carmine, and mounted on glass slides. The incidence of forming mammary lesions is the ratio of the glands with mammary lesions to […]. The incidence of mammary lesions in test compound treated glands is compared with that of the untreated glands.\nThe extent of the area occupied by the mammary lesions can be quantitated by projecting an image of the gland onto a digitation pad. The area covered by the gland is traced on the pad and considered as 100% of the area. The space covered by each of the non-regressed structures is also outlined on the digitization pad and quantitated by the computer.\nMammary gland organ culture experiment were performed as previously described (Mehta and Moon, Cancer Research, 46:5832-5835, 1986). […]"}, "[10]": {"system": "protein kinase G (PKG) activity in HCT116 colon cancer cells", "experiment": "PKG activity assay of lysates of drug-treated HCT116 cells", "assay_type": "cell-based", "from_the_text": "To test the effect of cGMP-specific PDE inhibition on neoplasia containing the β-catenin mutation, HCT116 colon cancer cells were employed. HCT116 is known to contain the β-catenin mutation, but is known not to contain the APC mutation.\nThe same procedure is used to grow the HCT116 cells as is used in the SW480 procedure described above. In this experiment, only exisulind and controls were used."}, "patients": {"system": "patients", "experiment": "Safety evaluation in exisulind clinical trials", "assay_type": "in vivo", "experimental": "In these exisulind trials and several others involving the drug in other indications, safety was evaluated by monitoring adverse events (AEs), clinical laboratory tests (hematology, serum chemistry, and urinalysis), vital signs (blood pressure, pulse rate, respiratory rate, temperature, and weight), physical examination, and upper endoscopy."}},
  "note": "Read-outs that look alike come from different tables or passages of the source.",
  "data": [
    {"smiles": "CCN(CC)CCSC12CC(=O)OC1(C)/C(=C/c1ccc(S(C)(=O)=O)cc1)c1ccc(F)cc12", "note": "(racemic) [A, rac-threo-(E)-1-(N,N′-diethylaminoethanethio)-1-(butan-1′,4′-olido)-[3′,4′:1,2]-6-fluoro-2-methyl-3-(p-methylsulfonylbenzylidene)-indan]", "values": [
      {"measurement": "cGMP PDE % Inhibition at 10 μM", "setting": "[1]", "result": "<25", "unit": "%"},
      {"measurement": "Fold induction at 100 μM (apoptosis)", "setting": "[2]", "result": "<2.0", "unit": "fold"},
      {"measurement": "COX % Inhibition at 100 μM", "setting": "[3]; 100 μM", "result": "<25", "unit": "%"},
      {"measurement": "Growth % Inhibition at 100 μM", "setting": "HT-29 cells", "result": 68, "unit": "%"}
    ]},
    {"smiles": "CCCCCC[C@@H]([C@@H](C)O)n1cnc2c(N)ncnc21", "note": "(racemic) [EHNA]", "values": [
      {"measurement": "Fold induction at 100 μM (apoptosis)", "setting": "[4]", "result": "<2.0", "unit": "fold"}
    ]},
    {"smiles": "O=C([O-])C1CCN(c2nc(NCc3ccc4c(c3)OCO4)c3cc(Cl)ccc3n2)CC1.[Na+]", "note": "[Compound E4021]", "values": [
      {"measurement": "competition with cGMP in binding of GST-cGB-PDE5", "setting": "[5]", "result": "None of the PDE5 inhibitors showed any competition with cGMP"},
      {"measurement": "sensitivity of peak B cGMP PDE activity", "setting": "[6]", "result": "resistant to 100 nM E4021"},
      {"measurement": "sensitivity of peak B cGMP PDE activity", "setting": "[7]", "result": "resistant to 100 nM E4021"},
      {"measurement": "Growth % Inhibition at 100 μM", "setting": "HT-29 cells", "result": "<50", "unit": "%"},
      {"measurement": "sensitivity of peak B cGMP PDE activity", "setting": "[8]", "result": "resistant to 100 nM E4021"}
    ]},
    {"smiles": "CC1=C(CC(=O)O)c2cc(F)ccc2/C1=C\\c1ccc(S(C)(=O)=O)cc1", "note": "[Exisulind, 5-fluoro-2-methyl-1-(p-methylsulfonylbenzylidene)-3-indenylacetic acid]", "values": [
      {"measurement": "competition with cGMP in binding of GST-cGB-PDE5", "setting": "[5]", "result": "None of the PDE5 inhibitors showed any competition with cGMP"},
      {"measurement": "reduction of expression of β-catenin", "setting": "β-catenin in SW480 cells", "result": 50, "unit": "%"},
      {"measurement": "cGMP PDE % Inhibition at 10 μM", "setting": "[1]", "result": 39, "unit": "%"},
      {"measurement": "inhibition of formation of premalignant lesions", "setting": "[9]", "result": "effectively inhibit the formation of premalignant lesions"},
      {"measurement": "IC50", "setting": "[3]", "result": "> 10", "unit": "mM"},
      {"measurement": "PKG activity relative to control", "setting": "[10]", "result": "PKG activation occurred"},
      {"measurement": "dose-limiting adverse events", "setting": "patients; human, in vivo", "result": "elevations in liver function tests (LFTs)"},
      {"measurement": "safety issues in clinical trials", "setting": "patients; human, in vivo", "result": "No outstanding safety issues have been demonstrated"},
      {"measurement": "apoptosis rates in paired biopsies", "setting": "patients; polyp and normal colonic tissues in APC patients", "result": "increased apoptosis rates in polyp, but not normal colonic tissues"}
    ]}
  ]
}
